Measurements reported in patent publication US20250188044A1 (HARBIN MEDISAN PHARMACEUTICAL CO., LTD., priority 2021, published 2025).
“Also recorded” adds a separate entry of the source.

Tests used:
[1] = tested on: liver fibrosis model mice; experiment: Carbon tetrachloride-induced liver fibrosis mouse model; type: in vivo, C57 mice
Protocol: Animals: 60 male C57 mice, SPF grade, 8 weeks old, weighing about 20 g, purchased from Beijing Vital River Laboratory Animal Technology Co., Ltd. All animals were kept on a 12-h alternating circadian rhythm and were fed ad libitum.
Reagent: positive drug IVA337 (Pan-PPAR agonist, currently in an anti-NASH phase II clinical trial), which was prepared according to the method in the literature (J. Med. Chem., 2018, 61, 2246); carbon tetrachloride (purchased from Shanghai Aladdin Biochemical Technology Co., Ltd.), and sunflower seed oil (purchased from Shanghai Yuanye Biotech Co., Ltd.).
. Mice were given food and water normally and subjected to modeling for 3 weeks. The model group and the administration groups were each injected twice a week with a 25% CCl4 oil solution at a dose of 2 mL/kg, and the control group was injected with an oil solvent at the same volume.
. The administration was performed for 3 weeks, and the mice were given food and water normally. The mice in each group were weighed daily, and their body weight, hair, feces, and activity were carefully observed and recorded.
At 30 h after the sixth injection of CCl4, the mice were dissected for the samples. Blood was taken from the orbit, and then the liver was taken after the mice were sacrificed. The right lobular tissue of liver was fixed with 4% paraformaldehyde and used for HE staining of sections.
The pretreated tissues were sent to ServiceBio Biotechnology Co., Ltd. to make HE stained sections and Sirius red stained sections.
The liver tissue stored at −80° C. was taken out and placed in liquid nitrogen, about 10 mg of liver tissue was rapidly cut off, homogenized with a homogenizer after about 500 μL of precooled tissue lysis buffer was added, and then lysed on ice for 30 min. The lysate was centrifuged at 12,000 rpm for 15 min at 4° C., and 170 μL of supernatant was added to a clean EP tube, from which 10 μL of supernatant was taken for BCA protein quantification. 40 μL of 5*loading buffer was added to the rest of protein supernatant for boiling for denaturation, followed by SDS-PAGE electrophoresis, and the protein was transferred onto a PVDF membrane for incubation and elution of related antibodies. Finally, imaging analysis was performed by using a chemiluminescence apparatus.
The liver tissue stored at −80° C. was taken out and placed in liquid nitrogen, about 200 mg of the liver tissue was rapidly cut off, and hydroxyproline in the liver tissue was detected according to the method in the product instructions (Beijing Solarbio Science & Technology Co., Ltd., BC0255).

[2] = tested on: NASH model mice; experiment: CDAA-induced NASH mouse model; type: in vivo, C57 mice
[3] = tested on: nuclear receptors other than PPAR (RARα, RARγ, RARβ, FXR, RXRα, RXRγ, RXRβ, VDR, LXRα, LXRβ, THβ, PXR, CAR); experiment: Nuclear receptor selectivity, Gal4-LBD reporter gene assays in Cos-7 cells; type: cell-based, human; conditions: 1 μM, relative agonistic rate (FIG. 16)
[4] = tested on: PPARα/δ downstream target gene; conditions: mice, 10 mg/kg intragastric, four consecutive days (FIG. 15)
[5] = Pharmacokinetic evaluation in rats; type: in vivo, SD rats
Protocol: Animals: 6 male SD rats, SPF grade, sourced from the animal repository of Shanghai Medicilon research institution.
The dose in the oral administration group was 10 mpk, and the dose in the intravenous injection group was 2 mpk.
All samples were centrifuged at 18,000 g for 7 min in a low-temperature centrifuge, and plasma was isolated. The content of the compound in the plasma was determined by LC-MS/MS-18, and relevant pharmacokinetic parameters were calculated from the plasma concentration data at different time points.

[6] = tested on: HepG2 cells; experiment: Lipid metabolism-associated gene expression of HepG2 cells (qPCR); type: cell-based, human; conditions: 8 nM, nM, and 200 nM, 12 h, vs. blank control (FIGS. 1 and 2)
Protocol: HepG2 cells (human hepatoma cells) were cultured in a 6-well cell culture plate and subjected to adherent culture overnight. […] The old medium was discarded and replaced with drug-containing medium of different concentrations (complete medium without the compound for the blank control group). After dosing, the cells were incubated for 12 h. The medium was discarded and total RNA was extracted by the phenol-chloroform method. After reverse transcription, the real-time quantitative fluorescent PCR experiment (RNA extraction, reverse transcription, quantitative PCR reagents were all purchased from Nanjing Vazyme Biotech Co., Ltd.) was performed using ACTB as an internal reference, and the expression of PDK4, ACADVL, and CPT1A, which are important genes in oxidative metabolism of lipids, was detected according to the steps in the product instructions (the primer sequences are shown in Table 7). […] Some other compounds of the present invention also have similar activity.

[7] = Metabolic stability in human liver microsomes; type: in vitro ADME
Protocol: A 500 μM solution of the compound in acetonitrile was prepared and diluted to obtain a 1.5 μM drug working solution with a 0.1 M potassium phosphate solution. The drug working solution was co-incubated with a human liver microsome working solution at a final concentration of 0.75 mg/mL and an NADPH solution (final concentration: 550 μM), and the incubation was terminated by adding an acetonitrile solution at 0 min, 15 min, 30 min, 45 min, and 60 min. The residual amount of the compound that remained in the system at each time point was detected by using LC/MS. The absolute value k of the slope was determined by plotting the natural logarithm of the percentage of the residual amount of the compound with the time, and the calculation was performed according to the formula: T1/2 (half-life)=ln2/k=0.693/k.

[8] = tested on: nonalcoholic steatohepatitis (NASH); conditions: NCT02704403; cited from earlier work

## Cc1cc(Cn2ncn(-c3ccc(OC(F)(F)F)cc3)c2=O)cc(C)c1OC(C)(C)C(=O)O [Compound 61, 2-(2,6-Dimethyl-4-((5-oxo-4-(4-(trifluoromethoxy)phenyl)-4,5-dihydro-1H-1,2,4-triazo 1-1-yl)methyl)phenoxy)-2-methylpropionic acid]
[1]; CCl4 liver fibrosis model mice, 10 mg/kg intragastric daily, 3 weeks, 10 mg/kg
  anti-liver fibrosis efficacy compared with IVA337 at the same dose: stronger effect than IVA337 at the same dose; also recorded: better effect than IVA337 at the same dose; also recorded: better efficacy than a positive control drug IVA337 at the same dose
[1]; CCl4 liver fibrosis model mice, 3, 10, 30 mg/kg intragastric daily, 3 weeks (FIG. 11)
  hepatic hydroxyproline level: down-regulate the hepatic hydroxyproline level of liver fibrosis model mice in a dose-dependent manner
[1]; CCl4 liver fibrosis model mice, Western blot (FIG. 12)
  αSMA and Collal protein levels in liver: inhibit the increase of αSMA and Collal protein levels due to modeling in a dose-dependent manner
[1]; CCl4 liver fibrosis model mice, liver sections (FIG. 13)
  HE staining: infiltration of inflammatory cells in the portal area: reduce the infiltration of inflammatory cells in the portal area due to modeling in a dose-dependent manner
[1]; CCl4 liver fibrosis model mice, liver sections (FIG. 14)
  Sirius red staining: collagen deposition: reduce collagen deposition due to modeling in a dose-dependent manner
[2]; NASH model mice, 10 mg/kg intragastric daily, 6 weeks, 10 mg/kg
  anti-NASH efficacy compared with GFT505 and IVA337 at the same dose: stronger liver enzyme-lowering effect than GFT505 and IVA337 at the same dose; also recorded: stronger effect in resisting liver inflammation than GFT505 and IVA337; also recorded: stronger effect in resisting liver fibrosis than GFT505 and IVA337; also recorded: better effect than GFT505 and IVA337 at the same dose; also recorded: better efficacy than positive control drugs GFT505 and IVA337 at the same dose; also recorded: better anti-NASH efficacy than clinically investigational PPAR agonists GFT505 and IVA337 at the same dose
[2]; NASH model mice, 3, 10, 30 mg/kg intragastric daily, 6 weeks (FIG. 6)
  liver mRNA expression levels of Tnf, IIIb, Ccl4, and Adgre1: inhibit the increase of mRNA expression levels of Tnf, IIIb, Ccl4, and Adgre1 due to modeling in a dose-dependent manner
[2]; NASH model mice, 3, 10, 30 mg/kg intragastric daily, 6 weeks (FIG. 7)
  liver mRNA expression levels of Acta2, Tgfb1, Collal, and Col3a1: significantly inhibit the increase of mRNA expression levels of Acta2, Tgfb1, Collal, and Col3a1 due to modeling
[2]; NASH model mice, 3, 10, 30 mg/kg intragastric daily, 6 weeks (FIGS. 4 and 5)
  levels of ALT and AST in serum: down-regulate the levels of ALT and AST in serum of NASH model mice in a dose-dependent manner
[2]; NASH model mice, liver sections (FIG. 8)
  HE staining: infiltration of inflammatory cells in the portal area: reduce the infiltration of inflammatory cells in the portal area due to modeling in a dose-dependent manner
[2]; NASH model mice, liver sections (FIG. 9)
  Sirius red staining: collagen deposition: reduce collagen deposition due to modeling in a dose-dependent manner
[2]; NASH model mice, liver sections (FIG. 10)
  Oil red staining: lipid accumulation: reduce lipid accumulation due to modeling in a dose-dependent manner
[3]
  agonistic effect on nuclear receptors other than PPAR: no significant agonistic effect on nuclear receptors other than PPAR
[4]
  target genes significantly upregulated in the skeletal muscle: 16
[5]; intravenous injection, 2 mpk
  Time-to-peak Tmax: 0.08 ± 0.00 h
[5]; oral administration, 10 mpk
  Bioavailability F: 86.35%
  Time-to-peak Tmax: 1.42 ± 1.01 h
[6]
  expression of PDK4, ACADVL, and CPT1A: improve the expression of PDK4, ACADVL, and CPT1A in a dose-dependent manner with significance
[7]; human liver microsomes
  metabolic stability in human liver microsomes (in words): very good metabolic stability in human liver microsomes
[7]; human liver microsomes 0.75 mg/mL, NADPH, 0-60 min
  half-life: > 2 h

## CSc1ccc(C(=O)/C=C/c2cc(C)c(OC(C)(C)C(=O)O)c(C)c2)cc1 [GFT505, Elafibranor]
[8]
  efficacy in anti-NASH phase III clinical trial, interim analysis: substantially ineffective
